Experimental data reported in patent US10407712B2, “Methods, compositions and kits for high throughput kinase activity screening using mass spectrometry and stable isotopes” (President and Fellows of Harvard College, priority 2008, dated 2019).

Tests used:
[1] = tested on: HeLa cell lysates; assay: KAYAK in vitro kinase assay, lysates of asynchronous, G1/S- or G2/M-arrested HeLa cells; format: biochemical, human; conditions: for G1/S: changed phosphorylation: G1/S phase compared to asynchronously growing HeLa cells; for G2/M: changed phosphorylation: G2/M phase compared to asynchronously growing HeLa cells
Protocol: For cell cycle examples, HeLa cells were synchronized by double thymidine block for G1/S-arrest and by 0.2 μg/ml nocodazole for G2/M-arrest as described (Dephoure et al. 2008 Proc Natl Acad Sci USA 105: 10762-10767). Synchronization was confirmed by flow cytometry.
(§1) For cell lysis, the media were removed, and cells were washed with ice-cold phosphate-buffered saline (PBS) and lysed with ice-cold lysis buffer (10 mM K2HPO4 pH 7.5, 1 mM EDTA, 10 mM MgCl2, 50 mM β-glycerophosphate, 5 mM EGTA, 0.5% Nonidet P-40, 0.1% Brij 35, 0.1% deoxycholic acid, 1mM sodium orthovanadate, 1mM phenylmethyl-sulfonyl fluoride, 5 μg/ml leupeptin and 5 μg/ml pepstatin A). Lysates were centrifuged at 10,000 rpm for 10 min to remove cell debris, and clear supernatant was used for immunoblotting and in vitro kinase assays. Protein concentration was determined by Bradford assay (Biorad, Hercules, Calif.).
(§2) Peptides were synthesized, purified and quantified as described in Yu et al. 2009 Proc Natl Acad Sci USA 106: 11606-11611, hereby incorporated by reference herein in its entirety. Each substrate peptide (250 pmol) was mixed to a final concentration of 5 μM in the 50 μL reaction mixture. Alternatively, reactions were performed using 6 μg cell lysate aliquotes mixed to a final volume of 20 μl. Cell lysate or other kinase source was added to the substrate mixture in 25 mM Tris-Cl, pH 7.5, containing 5 mM ATP, 7.5 mM MgCl2, 0.2 mM EGTA, 7.5 mM β-glycerophosphate, 0.1 mM Na3VO4, and 0.1 mM DTT. The reaction was incubated at 25° C. for 60 min and then terminated by the addition of 100 μl of 1% trifluoroacetic acid (TFA) containing a known amount of an internal standard (typically 20 pmol). Alternatively, the reaction was incubated at 20° C. for 45 min before termination with TFA.
(§3) Forty-five individual in vitro kinase reaction mixtures were combined and desalted by using Sep-Pak C18 cartridge (Waters, Milford, Mass.). Phosphopeptides were enriched by immobilized metal ion chromatography (IMAC) with 20 μl of beads (Phos-Select iron affinity gel; Sigma, St. Louis, Mo.) and subsequently desalted by using Empore C18 solid phase extraction disks (3M, St. Paul, Minn.) as described previously.
(§4) Quantitation of the target peptide-internal standard ratios was performed by first constructing the extracted ion chromatogram for the most abundant charge state for each peptide using a ±10 ppm window. Chromatograms were integrated using Qual/Quan browser (Xcalibur 2.0.5, Thermo Fisher, San Jose, Calif.). Since the phosphorylated peptides generated from the in vitro kinase reactions were chemically identical to the internal standards, they were assumed to have the same ionization efficiency. Therefore, the amount of each phosphorylated peptide was calculated by direct ratio to the internal standard level.
(§5) To test substrate suitability in a multiplexed assay, the phosphorylation activities were measured using […] of each substrate peptide, 6 μg lysate, and 5 mM ATP in a plate format. Reactions proceeded for 60 minutes followed by acidification and the addition of isotope-labeled reference peptides. After pooling 45 samples, phosphopeptide enrichment was followed by liquid-chromatography (LC) separation and on-line peptide detection by high-resolution mass spectrometry.
In order to examine target peptides with cell-cycle-dependent phosphorylation, kinase activities in asynchronously growing HeLa cells were profiled and the profiles were compared with those of cells synchronized in G1/S and G2/M phase using a double-thymidine block and nocodazole arrest, respectively (FIG. 3B).

[2] = target: T1, recombinant RSK1 (Homo sapiens, UniProt Q15418); assay: In vitro peptide phosphorylation by purified RSK; format: biochemical
T1 construct: 90 kDa ribosomal S6 kinases 1 (RSK1, 1-735); purchased Cell Signaling Technology (Danvers, Mass.)
Text: Reaction mixture was supplemented with 0.1% BSA. Other conditions were the same as in FIG. 10A.
Purified human active kinases of Akt1 (full length), extracellular signal-regulated kinase 1 (ERK1, 1-379), mitogen-activated protein kinase kinase 1 (MEK1, 1-393), 90 kDa ribosomal S6 kinases 1 (RSK1, 1-735), cAMP-dependent protein kinase (PKA) catalytic subunit-α (PKA Cα, 1-351), protein kinase Cα (PKCα, full length), epidermal growth factor (EGF) receptor (EGFR, 672-1210), platelet-derived growth factor (PDGF) receptor α (PDGFRα, 550-1090), vascular endothelial growth factor (VEGF) receptor 1 (VEGFR1 784-1338), Src (full length), casein kinase 2 (CK2, full length), Aurora A (1-403), AMP-activated protein kinase α1β1γ1 (AMPK α1β1γ1, full length), glycogen synthase kinase-3α (GSK-3α, 1-483) and MAP/microtubule affinity-regulating kinase 1 (MARK 1, full length) were obtained from Cell Signaling Technology (Danvers, Mass.). Cdc2/cyclin B1 (full length) and insulin-like growth factor (IGF)-I receptor (IGFIR, 959-1367) were obtained from Upstate (Temecula, Calif.).
as §2, with “Each substrate peptide (250 pmol) was mixed to a final concentration of 5 μM in the 50 μL reaction mixture.” left out
It was observed that basal phosphorylation of these peptides was not affected by knockdown and likely was the result of remaining RSK isoforms or other basophilic kinases (FIG. 5C).

[3] = tested on: HEK293 cell lysates; assay: KAYAK in vitro kinase assay, individual reactions, lysates of starved, insulin- or EGF-stimulated HEK293 cells; format: biochemical, human; conditions: for E: changed phosphorylation in EGF stimulated condition: EGF-stimulated compared to starved HEK293 cells
Protocol: For stimulation of HEK293 cells or HeLa lines, cells were treated with insulin (100 nM; 10-30 min) EGF (50 ng/ml; 10 min) or phorbol 12-myristate 13-acetate (PMA; 50 or 100 ng/ml; 10 -30 min) at 37° C. for the indicated times after overnight serum-starvation.
as §1, §2, §3, §4, §5
The ability of the peptides to report specific changes in kinase activation after pathway stimulation was examined herein. Lysates from HEK293 cells were collected after insulin or EGF treatment and were compared to their activities in the serum-starved state using the KAYAK approach. Western blot analysis of lysates from cells in which the PI3K and MAPK pathways were activated, as indicated by elevated phospho-Akt and phospho-ERK1/2 levels, respectively, is shown in FIG. 1D. […]

[4] = tested on: PI3K and MAPK pathways; assay: KAYAK profiling of cancer cell lines with or without gefitinib: PI3K and MAPK activity; format: cell-based, human
Protocol: MCF7 and MBA-MB231 cells were maintained in DMEM supplemented with 10% FBS. Sum159 cells were maintained in Ham's F12 media supplemented with 5% FBS, 5μg/ml hydrocortisone. MCF10A, MCF10A, ErbB2, MCF10A/IGFR, and MCF10A/H-Ras^G12V cells were generously provided by J. Brugge (Debnath et al. 2002 Cell 111: 29-40; Irie et al. 2005 J Cell Biol 171: 1023-1034; Reginato et al. 2003 Nat Cell Biol 5: 733-740) and were maintained in 50/50 DMEM/F12 media supplemented with 5% horse serum, 20 ng/ml EGF, 100 ng/ml cholera toxin, 10 μg/ml insulin, and 500 ng/ml hydrocortisone. Breast cancer cells were treated also with 1 μM of gefitinib (LC laboratories) for 24 h before lysis and KAYAK analysis. The mutation data was obtained from Wellcome Trust Sanger Institute Cancer Genome Project Web site (Hollestele et al. 2007 Mol Cancer Res 5:195-201).
as §2
In tumors, activating mutations are often found in core signaling pathways (McLendon et al. 2008 Nature 455: 1061-1068). […]. The cell lines were chosen to represent the highly heterogeneous nature of breast cancer.

T1 sequence (Q15418 whole entry): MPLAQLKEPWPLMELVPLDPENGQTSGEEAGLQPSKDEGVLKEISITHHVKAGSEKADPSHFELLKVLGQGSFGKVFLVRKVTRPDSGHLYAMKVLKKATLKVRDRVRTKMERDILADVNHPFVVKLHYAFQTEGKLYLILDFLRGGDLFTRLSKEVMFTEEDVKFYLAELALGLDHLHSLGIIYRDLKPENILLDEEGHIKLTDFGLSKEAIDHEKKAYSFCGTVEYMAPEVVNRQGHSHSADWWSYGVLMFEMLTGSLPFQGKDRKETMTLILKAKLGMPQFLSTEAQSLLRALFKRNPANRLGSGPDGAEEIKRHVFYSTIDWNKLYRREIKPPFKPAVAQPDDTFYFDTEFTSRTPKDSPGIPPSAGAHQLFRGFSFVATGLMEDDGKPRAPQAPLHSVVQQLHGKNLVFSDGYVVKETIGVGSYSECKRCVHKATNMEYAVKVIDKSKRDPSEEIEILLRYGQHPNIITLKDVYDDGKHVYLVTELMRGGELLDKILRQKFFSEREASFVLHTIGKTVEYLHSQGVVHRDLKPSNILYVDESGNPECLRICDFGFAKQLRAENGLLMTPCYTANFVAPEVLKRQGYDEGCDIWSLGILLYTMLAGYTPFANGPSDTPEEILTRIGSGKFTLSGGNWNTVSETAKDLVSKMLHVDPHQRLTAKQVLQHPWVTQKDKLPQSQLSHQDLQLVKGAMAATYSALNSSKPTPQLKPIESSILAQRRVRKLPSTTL

Row | Molecule | G1/S: changed phosphorylation [1] | G2/M: changed phosphorylation [1] | E: changed phosphorylation in EGF stimulated condition [3] | also measured
1 | LKLSPSPSSRPFR (The sequence was designed and synthesized) [B11] | + (A change of more +2 fold and −2 fold is indicated by “+” and “−”, respectively.) | ++ (A change of more than +4 and −4 fold is indicated by “++” and “−−”, respectively.) | – | –
2 | IPTGTTPQRKPFR (The sequence was designed and synthesized) [C2] | – | ++ (A change of more than +4 and −4 fold is indicated by “++” and “−−”, respectively.) | – | increase in phosphorylation in G2/M ([1]; G2/M (nocodazole-arrested) HeLa lysate vs asynchronously growing cells): 19 fold
3 | PKRKVSSAEGPFR (The sequence was designed and synthesized) [B6] | – | − (A change of more +2 fold and −2 fold is indicated by “+” and “−”, respectively.) | + (A change of more +2 fold and −2 fold is indicated by “+” and “−”, respectively.) | phosphorylation by recombinant RSK1 in vitro [2]: robustly phosphorylate; increase in phosphorylation after EGF ([3]; EGF-stimulated vs serum-starved HEK293 lysate): 3 fold
4 | VKRQSSTPSAPFR (The sequence was designed and synthesized) [B7] | −− (A change of more than +4 and −4 fold is indicated by “++” and “−−”, respectively.) | −− (A change of more than +4 and −4 fold is indicated by “++” and “−−”, respectively.) | – | –
5 | COc1cc2ncnc(Nc3ccc(F)c(Cl)c3)c2cc1OCCCN1CCOCC1 [gefitinib] | – | – | – | activation of MAPK after treatment ([4]; HeLa cells, 1 μM): not to be affected; activity in PI3K and MAPK pathway after treatment ([4]; MCF7, 1 μM, 24 h): decreased activity; MAPK activity after treatment ([4]; MCF10A cells overexpressing RasV12, 1 μM, 24 h): gefitinib-resistance; PI3K and MAPK activity after treatment ([4]; MCF10A/ErbB2, 1 μM, 24 h): strongly inhibited; PI3K and MAPK activity after treatment ([4]; MCF10A/IGFR, 1 μM, 24 h): strongly inhibited; MAPK activity after treatment ([4]; MDA-MB231 cells, 1 μM, 24 h): completely refractory; MAPK activity after treatment ([4]; Sum159 cells, 1 μM, 24 h): some sensitivity; PI3K and MAPK activity after treatment ([4]; normal MCF10A cells, 1 μM, 24 h): strongly inhibited
6 | KKKRFSFKKSPFR (The sequence was designed and synthesized) [G10] | – | – | – | conversion of the substrate ([3]; serum-starved HEK293 lysate, 100 μM peptide, 6 μg lysate, 60 min, highest activity peptide): 18%
7 | NQDPVSPSLVPFR (The sequence was designed and synthesized) [B5] | −− (A change of more than +4 and −4 fold is indicated by “++” and “−−”, respectively.) | − (A change of more +2 fold and −2 fold is indicated by “+” and “−”, respectively.) | – | –
8 | IPINGSPRTPPFR (The sequence was designed and synthesized) [B4] | – | ++ (A change of more than +4 and −4 fold is indicated by “++” and “−−”, respectively.) | + (A change of more +2 fold and −2 fold is indicated by “+” and “−”, respectively.) | –
9 | NKRRGSVPILPFR (The sequence was designed and synthesized) [C11] | – | – | + (A change of more +2 fold and −2 fold is indicated by “+” and “−”, respectively.) | phosphorylation by recombinant RSK1 in vitro [2]: robustly phosphorylate
10 | NLLPLSPEEFPFR (The sequence was designed and synthesized) [D7] | −− (A change of more than +4 and −4 fold is indicated by “++” and “−−”, respectively.) | −− (A change of more than +4 and −4 fold is indicated by “++” and “−−”, respectively.) | – | –
11 | FKNIVTPRTPPFR (The sequence was designed and synthesized) [D10] | – | ++ (A change of more than +4 and −4 fold is indicated by “++” and “−−”, respectively.) | – | –
12 | SKRRNSEFEIPFR (The sequence was designed and synthesized) [G5] | – | – | + (A change of more +2 fold and −2 fold is indicated by “+” and “−”, respectively.) | phosphorylation by recombinant RSK1 in vitro [2]: robustly phosphorylate
13 | PSTNSSPVLKPFR (The sequence was designed and synthesized) [A12] | – | + (A change of more +2 fold and −2 fold is indicated by “+” and “−”, respectively.) | – | –
